Data as given in the CheMixHub ionic liquid set.

Test: xn = mol fraction of the nth substance listed

N[C@@H](Cc1c[nH]cn1)C(=O)O + CCCCCCCCCCCC[N+](C)(C)C.[Br-] + O
viscosity [mPa·s], 101 kPa
Conditions	293.15 K	298.15 K	303.15 K	308.15 K	313.15 K
x1 = 0.0001801, x2 = 0.0001083	1.03	0.904	0.816	0.738	0.668
x1 = 0.0001801, x2 = 0.0001624	1.033	0.908	0.816	0.741	0.669
x1 = 0.0001801, x2 = 0.0002165	1.035	0.909	0.821	0.745	0.67
x1 = 0.0001801, x2 = 0.0002706	1.038	0.918	0.823	0.748	0.672
x1 = 0.0001801, x2 = 0.0003247	1.043	0.925	0.827	0.751	0.674
x1 = 0.0001801, x2 = 0.0003788	1.048	0.927	0.839	0.753	0.676
x1 = 0.0001801, x2 = 0.0004329	1.056	0.931	0.843	0.756	0.68
x1 = 0.0001801, x2 = 0.000487	1.06	0.935	0.849	0.758	0.685
x1 = 0.0001801, x2 = 0.000541	1.062	0.935	0.851	0.76	0.689
x1 = 0.0001802, x2 = 5.413e-05	1.027	0.901	0.815	0.736	0.667
x1 = 0.0008997, x2 = 0.000544	1.041	0.906	0.823	0.737	0.651
x1 = 0.0008998, x2 = 0.0003809	1.032	0.891	0.808	0.728	0.646
x1 = 0.0008998, x2 = 0.0004352	1.035	0.894	0.812	0.732	0.647
x1 = 0.0008998, x2 = 0.0004896	1.038	0.9	0.818	0.734	0.649
x1 = 0.0008999, x2 = 0.0002721	1.029	0.885	0.803	0.724	0.644
x1 = 0.0008999, x2 = 0.0003265	1.03	0.888	0.806	0.727	0.645
x1 = 0.0009, x2 = 0.0001633	1.025	0.879	0.8	0.722	0.641
x1 = 0.0009, x2 = 0.0002177	1.027	0.881	0.802	0.722	0.643
x1 = 0.0009001, x2 = 5.443e-05	1.02	0.874	0.796	0.721	0.64
x1 = 0.0009001, x2 = 0.0001089	1.022	0.876	0.799	0.721	0.64
x1 = 0.001798, x2 = 0.0001644	1.065	0.915	0.85	0.756	0.685
x1 = 0.001798, x2 = 0.0002191	1.067	0.916	0.854	0.759	0.688
x1 = 0.001798, x2 = 0.0002739	1.068	0.919	0.858	0.76	0.691
x1 = 0.001798, x2 = 0.0003287	1.07	0.92	0.862	0.764	0.693
x1 = 0.001798, x2 = 0.0003835	1.072	0.923	0.867	0.771	0.696
x1 = 0.001798, x2 = 0.0004382	1.079	0.927	0.87	0.776	0.701
x1 = 0.001798, x2 = 0.000493	1.083	0.931	0.876	0.781	0.706
x1 = 0.001798, x2 = 0.0005477	1.089	0.939	0.881	0.786	0.709
x1 = 0.001799, x2 = 5.48e-05	1.061	0.908	0.842	0.751	0.68
x1 = 0.001799, x2 = 0.0001096	1.064	0.912	0.846	0.755	0.683

CCCCCCC(O)CO (configuration not stated) + CCCCCCCC[N+](CCCCCCCC)(CCCCCCCC)CCCCCCCC.[Br-] + [Cl-].[Cl-].[Co+2]
Conditions	viscosity [mPa·s]
296.1 K, 101.3 kPa, x2 = 0.4, x3 = 0.2	27000

CC(=O)N(C)C + CCCC[n+]1ccn(C)c1.F[B-](F)(F)F
viscosity [mPa·s], 101 kPa
Conditions	293.15 K	298.15 K	303.15 K	308.15 K	313.15 K	318.15 K	323.15 K
x1 = 1	–	–	–	–	0.778	–	–
x2 = 0	1.02	0.94	0.87	0.82	0.78	0.74	0.72

CCC(C)=O + CCCC[n+]1ccn(C)c1.F[B-](F)(F)F
viscosity [mPa·s]
Conditions	298.15 K	303.15 K	313.15 K	323.15 K	333.15 K
100 kPa, x2 = 0	–	0.367	0.333	0.304	0.29
100 kPa, x2 = 0.0997	–	0.817	0.737	0.688	0.595
100 kPa, x2 = 0.1995	–	1.594	1.424	1.27	1.189
100 kPa, x2 = 0.2996	–	2.941	2.486	2.135	1.878
100 kPa, x2 = 0.3997	–	5.054	4.146	3.479	2.97
100 kPa, x2 = 0.5001	–	8.51	6.778	5.465	4.57
100 kPa, x2 = 0.6001	–	14.01	10.62	8.302	6.74
100 kPa, x2 = 0.6998	–	22.67	16.37	12.55	9.78
100 kPa, x2 = 0.7999	–	35.13	24.24	17.78	13.54
100 kPa, x2 = 0.8993	–	54.16	35.18	24.79	18.41
101.33 kPa, x1 = 0.1005	67.9	–	–	–	–
101.33 kPa, x1 = 0.3107	22.7	–	–	–	–
101.33 kPa, x1 = 0.6995	3.17	–	–	–	–

N[C@@H](Cc1c[nH]cn1)C(=O)O + CCCC[n+]1ccn(C)c1.F[B-](F)(F)F + O
viscosity [mPa·s], 100 kPa
Conditions	293.15 K	298.15 K	303.15 K	308.15 K	313.15 K	318.15 K
x1 = 0.0002714, x2 = 0.0003602	1.038	0.925	0.843	0.759	0.701	0.646
x1 = 0.0002725, x2 = 0.0007201	1.07	0.959	0.876	0.797	0.744	0.689
x1 = 0.0002736, x2 = 0.00108	1.101	0.991	0.912	0.838	0.787	0.733
x1 = 0.0004522, x2 = 0.0003601	1.041	0.927	0.845	0.761	0.703	0.648
x1 = 0.000454, x2 = 0.00072	1.073	0.962	0.879	0.8	0.747	0.692
x1 = 0.0004559, x2 = 0.00108	1.104	0.994	0.915	0.841	0.79	0.736
x1 = 0.0006329, x2 = 0.00036	1.044	0.93	0.848	0.764	0.706	0.651
x1 = 0.0006355, x2 = 0.0007198	1.076	0.965	0.882	0.803	0.75	0.695
x1 = 0.0006382, x2 = 0.001079	1.107	0.997	0.918	0.844	0.793	0.739
x1 = 0.0008136, x2 = 0.00036	1.047	0.933	0.851	0.767	0.709	0.654
x1 = 0.000817, x2 = 0.0007197	1.079	0.968	0.885	0.806	0.753	0.698
x1 = 0.0008203, x2 = 0.001079	1.11	1	0.921	0.847	0.796	0.742
x1 = 0.0009942, x2 = 0.0003599	1.05	0.936	0.854	0.77	0.712	0.657
x1 = 0.0009983, x2 = 0.0007196	1.082	0.971	0.888	0.809	0.755	0.7
x1 = 0.001002, x2 = 0.001079	1.113	1.003	0.924	0.849	0.799	0.745
x1 = 0.001175, x2 = 0.0003598	1.053	0.939	0.856	0.772	0.714	0.659
x1 = 0.00118, x2 = 0.0007194	1.085	0.974	0.89	0.811	0.758	0.703
x1 = 0.001185, x2 = 0.001079	1.116	1.006	0.927	0.852	0.802	0.748
x1 = 0.001355, x2 = 0.0003598	1.056	0.942	0.859	0.775	0.716	0.661
x1 = 0.001361, x2 = 0.0007193	1.088	0.976	0.893	0.814	0.76	0.705
x1 = 0.001366, x2 = 0.001079	1.119	1.008	0.929	0.855	0.804	0.75
x1 = 0.001536, x2 = 0.0003597	1.059	0.944	0.862	0.777	0.719	0.663
x1 = 0.001542, x2 = 0.0007192	1.091	0.979	0.896	0.816	0.763	0.707
x1 = 0.001548, x2 = 0.001078	1.122	1.011	0.932	0.857	0.806	0.752
x1 = 0.001716, x2 = 0.0003596	1.062	0.947	0.864	0.779	0.721	0.666
x1 = 0.001723, x2 = 0.000719	1.094	0.982	0.898	0.818	0.765	0.71
x1 = 0.00173, x2 = 0.001078	1.125	1.014	0.934	0.86	0.808	0.753

CCCCn1cc[n+](C)c1.O=S(=O)([N-]S(=O)(=O)C(F)(F)F)c1ccc[cH-]1.[Fe+2].c1cc[cH-]c1 + CCCC[n+]1ccn(C)c1.O=S(=O)([N-]S(=O)(=O)C(F)(F)F)C(F)(F)F
Conditions	viscosity [mPa·s]
298.15 K, 100 kPa, x2 = 0.749	184.5

CCO + CCCC[n+]1ccn(C)c1.O=S(=O)([N-]S(=O)(=O)C(F)(F)F)C(F)(F)F
100 kPa, x2 = 0
Conditions	viscosity [mPa·s]
297.55 K	1.11
297.85 K	1.1
298.15 K	1.1
301.48 K	1.04
303.3 K	1.01
309.67 K	0.91
312.7 K	0.86
313 K	0.86
313.3 K	0.85
313.61 K	0.85
316.33 K	0.8
319.36 K	0.76
319.67 K	0.76

Cc1ncc(CO)c(CO)c1O.Cl + CCCC[n+]1ccn(C)c1.[Br-] + O
viscosity [mPa·s], 100 kPa
Conditions	x1 = 0.0002684, x2 = 0	x1 = 0.0005421, x2 = 0	x1 = 0.0008084, x2 = 0	x1 = 0.001085, x2 = 0	x1 = 0.001353, x2 = 0	x1 = 0.001621, x2 = 0
293.15 K	1.007	1.012	1.017	1.022	1.027	1.032
298.15 K	0.895	0.9	0.905	0.91	0.915	0.921
303.15 K	0.801	0.806	0.811	0.816	0.821	0.826
308.15 K	0.722	0.727	0.732	0.737	0.741	0.747
313.15 K	0.657	0.662	0.667	0.671	0.676	0.681

CCO + CCCC[n+]1ccn(C)c1.[Cl-]
Conditions	viscosity [mPa·s]
303.15 K, 101 kPa, x1 = 1	0.99

CCO + CCCC[n+]1ccn(C)c1.[I-]
Conditions	electrical conductivity [S/m]
298.15 K, 100 kPa, x2 = 0	3.98e-05

CC[S+](CC)CC.O=S(=O)([N-]S(=O)(=O)C(F)(F)F)C(F)(F)F + CCCO
Conditions	viscosity [mPa·s]
313.15 K, 100 kPa, x1 = 0.6987	10.75

CCCCCC[N+]1(C)CCCC1.O=S(=O)([N-]S(=O)(=O)C(F)(F)F)C(F)(F)F + CCC[N+]1(C)CCCC1.O=S(=O)([N-]S(=O)(=O)C(F)(F)F)C(F)(F)F
101 kPa
Conditions	electrical conductivity, 313.15 K [S/m]	electrical conductivity, 353.15 K [S/m]	viscosity, 313.15 K [mPa·s]	viscosity, 353.15 K [mPa·s]
x1 = 0.25	0.581	–	38.6	–
x1 = 0.5	–	1.23	–	13.2

Oc1cccc(O)c1O + CCC[N+](CCC)(CCC)CCC.[Br-]
101.3 kPa, x2 = 0.5
Conditions	electrical conductivity [S/m]	viscosity [mPa·s]
293.15 K	0.00158	36500
298.15 K	0.00309	–
303.15 K	0.00531	17000
308.15 K	0.0126	11500
313.15 K	0.0186	6800
333.15 K	0.0967	850

CCO + CCOC(C)(C)C + CCOS(=O)(=O)[O-].CC[n+]1ccn(C)c1
Conditions	viscosity [mPa·s]
298.15 K, 101 kPa, x1 = 1, x2 = 0	1.077
